Results taken from the NIST ThermoML archive (doi:10.1021/acs.jced.5b00857).
± gives the expanded uncertainty stated by the source.

Key:
[1] = Crystal; DTA
[2] = Molar enthalpy of transition or fusion; details: Crystal; DSC

In the case of `O=C1OC[C@H]2[C@@H]1N(Cc1ccccc1)C(=O)N2Cc1ccccc1`, the Normal melting temperature [1] is reported as 118.70 ± 1.1 °C and the “Molar enthalpy of transition or fusion” value [2] is reported as 7.24 ± 0.454 kcal/mol.
